Laboratory results published in article PMC8949525, “Essential Elements and Isoflavonoids in the Prevention of Prostate Cancer” (Nutrients, 2022).
Like-named read-outs stand apart in the source and are kept apart here.

Columns and labels:
[1] = tested on: S. typhimurium TA1535/pSK1002; settings: for decrease in 2AA genotoxicity: range over 2AA 5 mg/L and 1 mg/L
Protocol: (§1) The umu-test detects the induction of bacterial DNA-damage response, the SOS system, in the strain S. typhimurium TA1535/pSK1002. The test strain carries pSK1002 plasmid, which contains the fusion of umuC, encoding one of SOS response proteins, and lacZ genes. The expression of β-galactosidase protein is fully controlled by umuC gene.
(§2) In the present study, the umu-test was performed in the micro-plate format according to the ISO guideline. The β-galactosidase activity was determined by the degree of ONPG cleavage measured as sample absorbance at 420 nm. The extent of SOS system activation was presented as induction ratio (IR), calculated as the ratio of β-galactosidase activity in the presence of the tested compound(s) to that of negative control. […] The optical density at 600 nm was used to describe the bacteria growth. […] Both measurements were performed with Asys UVM340 Hightech microplate spectrophotometer.
The S9 fraction from rat liver was used for metabolic activation of the tested compounds and the model mutagen. […] The P450 cytochrome level in the isolate was evaluated and the aliquots were stored at −80 °C. The S9 reaction mix was prepared as described by Maron and Ames.
(§3) In order to the establish anti-genotoxic potential of tested compounds, their effects on the action of two model genotoxic agents, 4NQO without the metabolic activation with rat liver S9 fraction and 2AA with metabolic activation, were evaluated. […] Subsequently, the modulation of 4NQO and 2AA genotoxicity by the isoflavones, the elements and their mixtures in previously used concentrations was investigated.

[2] = tested on: LNCaP prostate cancer cells; experiment: LNCaP cell proliferation (bisbenzimide H 33258-DNA fluorescence); format: cell-based, human; settings: isoflavone 10 μM, Zn 0.5, Se 0.03, Cu 0.5, Fe 1.5, Ca 40 μg/mL
Protocol: LNCaP cells (passage 12–18) were maintained in DMEM medium supplemented with 10% (v/v) FBS, sodium pyruvate (1 mM), penicillin (100 U/mL) and streptomycin (100 μg/mL) at 37 °C in 5% CO2 humidified atmosphere.
The final concentration of DMSO was 0.05%. It must be noted that DMEM contains 1.8 mM of calcium. […] The cells were then gently washed with 0.9% saline and lysed by brief sonication in deionised water. The cell proliferation was quantified by measurement of bisbenzimide H 33,258–DNA complexes fluorescence on Synergy 4 microplate reader with Gen5 software (BioTek Instruments Inc., 100 Tigan St, Winooski, VT 05404, USA).

[3] = tested on: S. typhimurium TA1535/pSK1002; settings: for G (growth ratio): −S9, NQO line = genotoxin alone; for anti-genotoxic activity against 4NQO (summary class): cells cover 4NQO […] and 0.05 mg/L, the single + corresponds to […] (Table 2)
Protocol: as §1, §2, §3

[4] = tested on: LNCaP cells; experiment: LNCaP viability/apoptosis, Hoechst 33258 fluorescent imaging; format: cell-based, human; settings: 48 h, Hoechst 33258 stain; genistein, Se, Fe; camptothecin 2 µM positive control
Protocol: The images were recorded with the DS-Fi1 camera connected with Eclipse TS100F inverted microscope with Epi-Fluorescent attachment (DAPI filter) and NIS-Elements BR 2.3 software.

[5] = 2AA 1 mg/L, +S9, daidzein or equol 10 μM with or without mineral (Table 6), 2AA line = genotoxin alone
[6] = 2AA 1 mg/L, +S9, genistein 10 μM and/or mineral added (Table 5), 2AA line = genotoxin alone
[7] = 2AA 5 mg/L, +S9, daidzein or equol 10 μM with or without mineral (Table 6), 2AA line = genotoxin alone
[8] = 2AA 5 mg/L, +S9, genistein 10 μM and/or mineral added (Table 5), 2AA line = genotoxin alone
[9] = −S9, isoflavone 10 μM, minerals Zn 0.5, Se 0.03, Cu 0.5, Fe 1.5, Ca 40 μg/mL
[10] = 4NQO 0.05 mg/L, genistein 10 μM and/or mineral added (Table 2)
[11] = 4NQO […], genistein 10 μM and/or mineral added (Table 2)
[12] = 2AA 1 mg/L, +S9 (second symbol of the cell)
[13] = 2AA 5 mg/L, +S9 (first symbol of the cell)
[14] = inhibition of IR induced by 2AA 1 mg/L, +S9 (Table 5)
[15] = inhibition of IR induced by 2AA 5 mg/L, +S9 (Table 5)

Compound | G (growth ratio) [1, 6] | G (growth ratio) [1, 8] | G (growth ratio) [1, 9] | LNCaP proliferation, % of control ([2]; 48 h incubation) [%] | G (growth ratio) [3, 10] | G (growth ratio) [3, 11] | anti-genotoxic activity against 4NQO (summary class) [3] | anti-genotoxic activity against 2AA (summary class) [1, 12] | anti-genotoxic activity against 2AA (summary class) [1, 13] | %Anti-Genotox. [1, 14] [%] | %Anti-Genotox. [1, 15] [%] | decrease in 2AA genotoxicity ([1]; +S9) | apoptosis / morphology of LNCaP cells [4] | LNCaP proliferation, % of control ([2]; 24 h incubation) [%] | also measured
Nc1ccc2cc3ccccc3cc2c1 [2AA, 2-aminoanthracene, reference compound] | 1.00 ± 0.07 | 1.02 ± 0.08 | – | – | – | – | – | – | – | – | – | – | – | – | G (growth ratio) [1, 5]: 0.92 ± 0.10; IR (induction ratio) [1, 5]: 2.37 ± 0.48; IR (induction ratio) [1, 6]: 2.00 ± 0.53; G (growth ratio) [1, 7]: 0.86 ± 0.09; IR (induction ratio) [1, 7]: 2.91 ± 0.54; IR (induction ratio) [1, 8]: 2.17 ± 0.39
[Ca+2].[Cl-].[Cl-] [Ca, calcium chloride] | – | 1.19 ± 0.13 | 1.11 ± 0.09 | 80 ± 9 | 1.13 ± 0.08 | 1.11 ± 0.05 | + (anti-genotoxicty of used compound(s) ≤ 20%) | – | – | – | – | – | – | – | –
O=S(=O)([O-])[O-].[Cu+2] [Cu, copper(II)/cupric sulphate] | 1.11 ± 0.12 | – | – | 80 ± 14 | 0.98 ± 0.10 | 1.00 ± 0.12 | – | ++ ++ (anti-genotoxicty of used compound(s) 21–40%) | ++ ++ (anti-genotoxicty of used compound(s) 21–40%) | 33 | 26 | 26–33% | – | – | –
O=S(=O)([O-])[O-].[Fe+2] [Fe, iron(II) sulphate] | 1.10 ± 0.06 | – | – | – | 1.10 ± 0.10 | – | + (anti-genotoxicty of used compound(s) ≤ 20%) | ++ (anti-genotoxicty of used compound(s) 21–40%) | + (anti-genotoxicty of used compound(s) ≤ 20%) | 21 | 14 | 14–21% | did not induce apoptosis | – | G (growth ratio) ([1]; +S9, isoflavone 10 μM, minerals Zn 0.5, Se 0.03, Cu 0.5, Fe 1.5, Ca 40 μg/mL): 0.98 ± 0.10
O=[Se](=O)([O-])[O-].[Na+].[Na+] [Se, sodium selenate] | 1.18 ± 0.10 | 1.17 ± 0.12 | 1.14 ± 0.11 | 84 ± 11 | 1.10 ± 0.09 | 1.11 ± 0.05 | – | – | – | – | – | – | did not induce apoptosis | – | –
O=S(=O)([O-])[O-].[Zn+2] [Zn, Zinc sulphate] | – | – | – | 82 ± 10 | – | – | – | – | – | – | – | – | – | – | –
CC[C@@]1(O)C(=O)OCc2c1cc1n(c2=O)Cc2cc3ccccc3nc2-1 [camptothecin, reference compound] | – | – | – | – | – | – | – | – | – | – | – | – | condensed chromatin or apoptotic nuclei | – | –
O=c1c(-c2ccc(O)cc2)coc2cc(O)ccc12 [dai, daidzein] | – | – | – | 70 ± 7 | – | – | – | – | – | – | – | – | – | 84 ± 10 | –
Oc1ccc([C@H]2COc3cc(O)ccc3C2)cc1 [eq, equol] | – | – | 1.18 ± 0.33 | 60 ± 9 | – | – | – | + (anti-genotoxicty of used compound(s) ≤ 20%) | ++ (anti-genotoxicty of used compound(s) 21–40%) | – | – | 29–34% | – | 81 ± 9 | G (growth ratio) [1, 5]: 0.99 ± 0.11; %Anti-Genotox. ([1]; inhibition of IR induced by 2AA 1 mg/L, +S9 (Table 6)): 34%; %Anti-Genotox. ([1]; inhibition of IR induced by 2AA 5 mg/L, +S9 (Table 6)): 29%; G (growth ratio) ([3]; 4NQO […], daidzein or equol 10 μM with or without mineral (Table 3)): 0.97 ± 0.26
O=c1c(-c2ccc(O)cc2)coc2cc(O)cc(O)c12 [gen, genistein] | – | 1.21 ± 0.17 | 1.28 ± 0.35 | 55 ± 9 | – | 1.12 ± 0.24 | + (anti-genotoxicty of used compound(s) ≤ 20%) | ++ (anti-genotoxicty of used compound(s) 21–40%) | + (anti-genotoxicty of used compound(s) ≤ 20%) | 32 | 17 | 17–32% | did not induce apoptosis | 72 ± 9 | –
